“And” between values parts separate entries of the source, which are not always exact repeats. Identical values can stand only once. Peptide text beside a SMILES is read from it. * marks the point of attachment. Cbz = O=C(OCc1ccccc1)*

In the first test the target is T1, BACE1 (Homo sapiens, UniProt P56817).
T1 construct: purchased Sigma-Aldrich Co. LLC; CS0010
T1 sequence (P56817 46-501): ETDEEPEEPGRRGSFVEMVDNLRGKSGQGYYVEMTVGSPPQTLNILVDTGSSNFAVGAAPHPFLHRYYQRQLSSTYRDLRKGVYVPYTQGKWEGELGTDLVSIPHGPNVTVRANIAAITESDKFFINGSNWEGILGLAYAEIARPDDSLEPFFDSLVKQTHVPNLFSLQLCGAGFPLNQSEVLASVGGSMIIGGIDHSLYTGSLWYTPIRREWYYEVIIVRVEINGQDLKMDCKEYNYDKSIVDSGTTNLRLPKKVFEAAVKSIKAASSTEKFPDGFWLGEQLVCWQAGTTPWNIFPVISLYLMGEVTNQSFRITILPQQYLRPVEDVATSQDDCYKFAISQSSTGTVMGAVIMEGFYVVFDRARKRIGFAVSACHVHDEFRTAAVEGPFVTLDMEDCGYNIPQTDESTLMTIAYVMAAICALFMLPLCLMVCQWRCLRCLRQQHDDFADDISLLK
Assay: not given
Further details: method as in ChEMBL23 [24]. The settings on record: known BACE1 inhibitors of Training/Test sets; ref ChEMBL23 [24]; cited from earlier work.
With `CC(C)c1ccc(CO[C@H]2CN(S(=O)(=O)c3ccccc3)C[C@@H]2Nc2nc3cc(F)ccc3[nH]2)cc1` [ChEMBL3746896], the concentration for half-maximal inhibition (IC50) – broadly, the concentration at which inhibition is half-maximal – is 480 nM. For `NC1=NC(c2ccncc2)(c2cccc(-c3cncc(F)c3)c2)c2cccc(F)c21` (stereo not shown) [ChEMBL2177905], the IC50 is 137 nM. `[C-]#[N+]c1ccc(C(=O)Nc2ccc(F)c([C@]34COC[C@@]3(F)CSC(N)=N4)c2)nc1` [ChEMBL3672943]: the IC50 was 6.6 nM.

For the compound `CC(C)C[C@H](NC(=O)[C@@H](NC(=O)[C@@H](N)CNC(=O)c1nn[nH]n1)C(C)C)C(=O)N[C@@H](Cc1ccccc1)[C@@H](O)C(=O)Nc1cc(-c2nn[nH]n2)cc(-c2nn[nH]n2)c1` [ChEMBL439521], the concentration for half-maximal inhibition (IC50) is 1.2 nM. Turning to `O=C(Nc1cc(Br)ccc1N1CCNCC1)c1cccc2ccccc12` [ChEMBL203120], the IC50 is 1000 nM. With `NC1=NC(c2ccccc2)(C2CCCCC2)C(=O)N1CCCCCC(=O)O` (stereo not shown) [ChEMBL607527], the IC50 is 950 nM.

Turning to `CC1(C)OCC(N)=N[C@](C)(c2cc(NC3COc4cc(Cl)ccc43)ccc2F)C1(F)F` (stereo partly shown) [ChEMBL3670919], the IC50 is 320 nM. Regarding `NC1=N[C@@]2(CCOC1)c1cc(-c3cccnc3F)ccc1Oc1cnc(-c3ccc(F)c(F)c3)cc12` [ChEMBL2152912], the IC50 was 2 nM. Turning to `NC1=N[C@@]2(c3cc(-c4cccnc4F)ccc3Oc3c(F)cc(N4CCOCC4)cc32)c2nccn21` [ChEMBL3677276], the IC50 was 0.7 nM. In the case of `Cc1cc(C2(c3cccc(-c4cncnc4)c3)N=C(N)N(C)C2=O)ccn1` (stereo not shown) [ChEMBL598258], the IC50 is 80 nM. In the case of `NC1=NC2(CO1)c1cc(NC(=O)c3ncc(Br)cn3)ccc1OCC21CC1` (stereo not shown) [ChEMBL3650820], the IC50 is 661 nM. In the case of `CCO[C@H]1CC[C@]2(CC1)Cc1ccc(-c3cccc(OC)c3)cc1C21N=C(N)N(C)C1=O` (stereo partly shown) [ChEMBL3978126], the IC50 is 15 nM.

`O=C(C[n+]1ccccc1)Nc1cccc(C(=O)Nc2ccc(Cl)cc2)c1` [ChEMBL1163225]: the IC50 is 1000 nM.

`NC1=N[C@@]2(CO1)c1cc(-c3cccnc3F)ccc1Oc1c2cc(N2CCOCC2)nc1F` [ChEMBL3394224]: the IC50 is 0.3 nM. As for `CC1(c2cccc(NC(=O)c3ncc(Br)cn3)c2)COCC(N)=N1` (stereo not shown) [ChEMBL3653345], the IC50 is 540 nM. As for `COC1CCC2(CC1)Cc1ccc(-c3cccc(C#N)c3)cc1C21N=C(N)c2ccccc21` (stereo not shown) [ChEMBL3673221], the IC50 was 6 nM.

On to `COc1cc(F)c2c(c1)C1(N=C(N)n3ccnc31)c1cc(-c3cccnc3F)ccc1O2` (stereo not shown) [ChEMBL3677269], for which the IC50 is 9 nM.

For `CCc1cn2c3c(cc(C(=O)N[C@@H](Cc4ccccc4)[C@H](O)CNC4CC4)cc13)N(CC)S(=O)(=O)CC2` [ChEMBL533064], the IC50 was 20 nM.

Consider `CC1=NC2(CC(C3CCOC(C)(C)C3)Oc3ccc(-c4cccc(Cl)c4)cc32)N=C1N` (stereo not shown) [ChEMBL3653708], for which the IC50 was 5 nM.

For the compound `NC1=NC2(CO1)c1cc(-c3cc(Cl)cnc3F)ccc1OC1(CCC1)C21COC1` (stereo not shown) [ChEMBL3703272], the IC50 is 827 nM. Regarding `NC1=N[C@](CF)(c2cc(NC(=O)c3cc4ccccc4cn3)ccc2F)[C@H]2C[C@H]2O1` [ChEMBL3688633], the IC50 is 500 nM. On to `CCc1ccc2c(c1)C1(N=C(N)N(C)O1)[C@]1(CC[C@H](OC)CC1)C2` (stereo partly shown) [ChEMBL3656204], for which the IC50 is 521 nM.

As to `CC#CCOc1cnc(C(=O)Nc2ccc(Cl)c(C3(C(F)F)N=C(N)OC4CC43)c2)cn1` (stereo not shown) [Compound 4], the IC50 is 3.9 nM.

`CN1C(=O)CC2(N=C1N)c1cc(-c3cccnc3F)ccc1Oc1c2cc(-c2ccnc(F)c2)nc1F` (stereo not shown) [ChEMBL3639946]: the IC50 is 2.4 nM.

The next test deals with T1, BACE1. Description: Cell-free FRET assay for BACE1 activity (β-Secretase (BACE1) Activity Detection Kit CS0010). The settings on record: 10 μM; Table S2, thirty-four in vitro tested compounds; mean of at least three independent experiments in triplicate. It counts as biochemical.
For the compound `O=C(NC(Cc1cnc[nH]1)C(=O)NC(Cc1ccc(O)cc1)C(=O)O)OCc1ccccc1` (stereo not drawn) [NSC333463] (Cbz-His-Tyr-OH; configuration not given here), the “Average percent inhibition at 10 μM” value was determined as 13.4%. Take `COc1cc(C(O)C(O)c2cc(CN3CCOCC3)c(O)c(OC)c2)cc(CN2CCOCC2)c1O` (stereo not shown) [NSC55229]: the “Average percent inhibition at 10 μM” value stood at 12.1%. Take `CC(=O)c1cccc(OCC(O)CN2CCN(c3ccc(C)cc3)CC2)c1` (stereo not shown) [NSC147852]: the “Average percent inhibition at 10 μM” value turned out to be 10.6%. For the compound `CC(=O)c1ccccc1OCC(O)CN1CCN(c2ccccc2)CC1` (stereo not shown) [NSC147850], the “Average percent inhibition at 10 μM” value came to 8.7%. Consider `O=C1c2ccccc2C(=O)c2c(NCCCNCCO)ccc(NCCCNCCO)c21` [NSC278467], for which the “Average percent inhibition at 10 μM” value was 17.0%.

In the case of `N#CC(NCCCNC(C#N)c1ccccc1)c1ccccc1` (stereo not shown) [NSC81537], the “Average percent inhibition at 10 μM” value was 8.6%. Take `CC(=O)c1ccccc1OCC(O)CN1CCN(c2cccc(C(F)(F)F)c2)CC1` (stereo not shown) [NSC147843]: the “Average percent inhibition at 10 μM” value is reported as 9.6%. Turning to `CC(=O)c1ccc(OCC(O)CN2CCN(c3ccccc3)CC2)c(C)c1` (stereo not shown) [NSC147841], the “Average percent inhibition at 10 μM” value came to 13.0%.

The test is the same for the next values; noted with them: 10 μM; mean of at least three independent experiments performed in triplicate; read-out: Average Percent Inhibition at 10 μM.
As to `CC(=O)[C@]1(O)Cc2c(O)c3c(c(O)c2[C@@H](O[C@H]2C[C@H](N)[C@H](O)[C@H](C)O2)C1)C(=O)c1ccccc1C3=O` [Compound 21, idarubicin], the inhibition – broadly, the relative decrease from the control value, in per cent – at 10 µM turned out to be 18.1%. Take `COc1ccc(C(=O)/C=C/c2cn(CC(O)CN3CCN(C)CC3)c3ccccc23)cc1` (stereo not shown) [Compound 11]: the inhibition at 10 µM amounted to 50.3%. On to `CCN(CC)CCNc1ccc(CO)c2oc3ccccc3c(=O)c12` [Compound 18], for which the inhibition at 10 µM was 20.6%. For `Cc1cc(=O)oc2cc(OCC(O)CN3CCN(c4ccc(F)cc4)CC3)ccc12` (stereo not shown) [Compound 12], the inhibition at 10 µM was 33.5%.

In the case of `CC(=O)Nc1ccc(N2C(=O)CC(NCc3ccc(Cl)cc3Cl)C2=O)cc1` (stereo not shown) [Compound 14], the inhibition at 10 µM is 31.3%. The same measure, in the same setting: then `CC1(C)N=C(N)N=C(N)N1c1cccc(OCCCOc2ccc(NC(=O)CBr)cc2)c1` [Compound 22], with 18.1%. As to `Cc1ccc(S(=O)(=O)Oc2ccc3oc4c(CO)ccc(NCCN(C)C)c4c(=O)c3c2)cc1` [Compound 19], the inhibition at 10 µM stood at 21.2%. Still for that read-out and setting: then `CC(CCc1ccc(O)cc1)NCCc1ccc(O)c(O)c1` (stereo not shown) [Compound 16, dobutamine], with 29.9%; and `O=C(CCc1ccccc1)c1ccccc1OCC(O)CN1CCCCC1` (stereo not shown) [Compound 13], with 34.7%; and `O=C1c2c(O)ccc(O)c2C(=O)c2c(NCCNCCO)ccc(NCCNCCO)c21` [Compound 17, mitoxantrone], with 22.6%. Take `O=C1c2ccccc2C(=O)c2c3c(cc(NCCNCCO)c21)N(CCO)CCN3` [Compound 20]: the inhibition at 10 µM came out at 19.5%. Turning to `NC(Cc1ccccc1)C(=O)NCC(=O)NC(Cc1ccccc1)C(=O)NCC(=O)O` (stereo not shown) [Compound 15] (H-FGFG-OH; configuration not given here), the inhibition at 10 µM was 30.7%.

Staying with this test, now noted: from the dose-response curve (Figure 8).
In the case of `COc1ccc(C(=O)/C=C/c2cn(CC(O)CN3CCN(C)CC3)c3ccccc23)cc1` (stereo not shown) [Compound 11], the 50% inhibitory concentration (IC50) was 15400 nM and 15000 nM.

The same test, now with this note: read-out: Average percent inhibition at 10 μM.
As to `O=C1c2ccccc2C(=O)c2c(NCCNCCO)ccc(NCCNCCO)c21` [NSC196473], the inhibition at 10 µM was 12.4%.
